Measured values published in patent publication US7829593B2, “Glutamine-containing compositions and a method for increasing blood flow using same” (Ajinomoto Co., Inc., priority 2006, dated 2010).
Read-outs that look alike come from different tables or passages of the source.

Assays:
[1] = tested on: blood flow in the capillary vessels of various organs of rats; assay: Changes in blood flow in various organs after oral administration of glutamine to rats (microsphere method); assay type: in vivo, rat; conditions: for Change in blood flow after administration of amino acid, on the basis of 100% blood flow before administration: male SD rats, 50 mg/kg glutamine into the stomach
Procedure: (a) Glutamine was given to rats and then the changes in blood flow in the capillary vessels of their various organs were determined. (b) Male SD rats having a body weight of about 400 g were subjected to the experiment. (c) The rats were anesthetized by pentobarbital, and catheters were placed in the left ventricle and the right […] of each rat. […] Through the catheter located from the carotid artery to the left ventricle, yellow and red microspheres were each injected before and after the administration of the amino acid solution. […] For the control group, distilled water was administered. (b) Operation: Catheters were inserted into the carotid and femoral arteries of the rats under anesthesia, the microspheres were injected via these catheters, and blood samples were taken. […] After a sufficient interval after the second injection of the microspheres, the rats were euthanized. The muscles, alimentary canals, liver, kidneys, spleen, heart, brain, fat tissue, and abdominal skin were extracted. The microspheres which had collected in each organ were removed and the change in the ratio of the blood flow was calculated from the amounts of microspheres present in each organ.

[2] = tested on: blood pressure and vascular resistance in humans; conditions: 78 kg average body weight, cited from earlier work

With `NC(=O)CC[C@H](N)C(=O)O` [Glutamine, glutamine] the “Change in blood flow after administration of amino acid, on the basis of 100% blood flow before administration” value ([1]; Abdominal skin) was 146%, the “Change in blood flow after administration of amino acid, on the basis of 100% blood flow before administration” value ([1]; Brain) was 163% and the “Change in blood flow after administration of amino acid, on the basis of 100% blood flow before administration” value ([1]; Dorsal skin) was 154%. The “Change in blood flow after administration of amino acid, on the basis of 100% blood flow before administration” value ([1]; Duodenum) was 136%, the “Change in blood flow after administration of amino acid, on the basis of 100% blood flow before administration” value ([1]; Fat tissues) was 137% and the “Change in blood flow after administration of amino acid, on the basis of 100% blood flow before administration” value ([1]; Gastrocnemius) was 105%. The “Change in blood flow after administration of amino acid, on the basis of 100% blood flow before administration” value ([1]; Heart) was 259%, the “Change in blood flow after administration of amino acid, on the basis of 100% blood flow before administration” value ([1]; Kidney) was 113% and the “Change in blood flow after administration of amino acid, on the basis of 100% blood flow before administration” value ([1]; Liver) was 226%. The “Change in blood flow after administration of amino acid, on the basis of 100% blood flow before administration” value ([1]; Soleus) was 146%, the “Change in blood flow after administration of amino acid, on the basis of 100% blood flow before administration” value ([1]; Spleen) was 146% and the “Blood flow in the capillary vessels (result in words)” value ([1]; abdominal skin, spleen, liver, heart and brain, rats, 50 mg/kg glutamine) was “significant increase in blood flow”.
In the case of `N=C(N)NCCC[C@H](N)C(=O)O` [arginine], the “Effect on blood pressure and vascular resistance” value ([2]; 6 g arginine intravenously) is listed as “did not have either effect” and the “Effect on blood pressure and vascular resistance” value ([2]; 30 g arginine intravenously) is listed as “lowered blood pressure and vascular resistance”.
